Patent US10864251B2, “Peptides of syndecan-1 for inhibiting angiogenesis” (Wisconsin Alumni Research Foundation, priority 2006, dated 2020)
Read-outs that look alike come from different tables or passages of the source. Where no end group is shown, it is not given here.

How the values were obtained:
[1] = test system: MDA-MB-231 human mammary carcinoma cells; assay type: cell-based
Procedure: FIGS. 5A-5F—Inhibition of MDA-MB-231 human mammary carcinoma cell attachment and spreading on VN by synstatin82-130. MDA-MB-231 human mammary carcinoma cells, which rely on the αvβ3 integrin for attachment and spreading on VN, were plated on 10 μg/ml VN for 2 hr in the absence of peptide (FIG. 5A) or in the presence of 0.1 (FIG. 5B), 0.3 (FIG. 5C) or 1 μM (FIG. 5D) synstatin82-130. The cells were fixed and stained as in FIG. 2.
FIG. 17—Human SSTN peptides inhibit αvβ3-mediated cell attachment and spreading on vitronectin. MDA-MB-231 human mammary carcinoma cells were allowed to attach and spread on either vitronectin (VN) or fibronectin (FN) during a 2 hr assay in the presence of 0, 0.1, 0.3, 0.5, 1.0 or 30 μM SSTN peptide. […] The two peptides tested are derived either from amino acids 88-121 (hSSTN 88-121) or 89-120 (hSSTN 89-120) of the human Sdc1 sequence. Adhesion to VN, but not FN, is mediated by the αvβ3 integrin on these cells and is disrupted by the human SSTN peptides.
Cell adhesion and spreading assays were performed with modification to the previous procedures (Lebakken and Rapraeger, 1996. Briefly, human plasma vitronectin or fibronectin at 10-30 μg/ml were applied to nitrocellulose-coated ten well slides (Erie Scientific) and incubated for 1-2 h at 37° C. Slides were blocked with 1.0% heat-denatured bovine serum albumin for a minimum of 30 min at 37° C. Cells were detached from the substratum using 5 mM EDTA in Tris-buffered saline and resuspended in HEPES-buffered culture medium containing 0.1% heat-denatured BSA. Cells were plated at a density of 15,000 cells per well and allowed to attach and spread for 2 h prior to fixation in 4% paraformaldehyde in CMF-PBS. For fluorescence microscopy, fixed cells were permeabilized in 0.2% Triton X-100, labeled with rhodamine-conjugated phalloidin and analyzed using fluorescence microscopy. For testing inhibition by recombinant mScd-1ED and synstatin82-130, cells were pre-incubated 10 min before plating in the presence of the inhibitor. […] LM609 was used as a specific block to αvβ3 and P1F6 was used as a specific blocker of αvβ5.
The inventors have tested the adhesion and spreading of MDA-MB-231 mammary carcinoma cells on VN in the presence or absence of synstatin82-130. These cells rely specifically on the active αvβ3 integrin for this adhesion (Beauvais et al., 2004). Recombinant Sdc1 ectodomain (SLED) has been shown by the inventors previously to block spreading of these cells with an IC50 of about 3-10 μM (Beauvais et al., 2004). […] Thus, synstatin82-130 is a specific and effective inhibitor of αvβ3 integrin activation.

[2] = Active SSTN in blood detected on dot blots; assay type: in vivo; conditions: mouse
Procedure: Lastly, SSTN was tested in the in vivo corneal angiogenesis assay. Polyhydroxyethylmethylacrylate pellets (0.25 μL) containing 67 ng FGF-2 and sucralfate as a slow release agent were implanted into the avascular mouse cornea. After seven days, fluorescent dextran was injected suborbitally to highlight the vascular system and the mice were sacrificed. […] To supply the inhibitor in a more quantifiable and physiological manner, recombinant mS1ED or SSTN were delivered systemically via Alzet osmotic pumps implanted subcutaneously on the backs of the animals. […] To correlate this with the active concentration in the plasma, the inventors took advantage of rabbit polyclonal antibodies generated against mS1ED, which detect active SSTN on dot blots. […] Using this method to detect active SSTN in the blood collected from animals after 1 week of SSTN treatment, SSTN is shown to be in the blood at 125-150 nM when present at 10 μM in the osmotic pump.

[3] = test system: MDA-MB-231 human mammary carcinoma cells; conditions: MDA-MB-231 on vitronectin; shown previously (Beauvais et al., 2004); read-out: IC50, block of cell spreading on VN; cited from earlier work
[4] = test system: B82L fibroblasts; conditions: B82L cells; McQuade et al., 2006; read-out: IC50, recognition of VN; cited from earlier work

Row | Molecule | IC50 ([1]; 2 h) | level at time molar at 168 h ([2]; blood, sc, after 1 week, 10 μM in the osmotic pump, read-out: concentration in the blood) | clearance rate in the plasma ([2]; suggested from blood level) | IC50 [3] | complete block of cell attachment on VN ([1]; highest concentration tested, 50 μM) | IC50 [4]
1 | SNTETAFTSVLPAGEKPEEGEPVLHVEAEPGFTARDKEKEVTTRPRETV [synstatin82-130] | ~100 nM | 125 to 150 nM | 10 to 13 h | – | – | –
2 | S1ED: recombinant mouse Sdc1 ectodomain (amino acids 18-251), expressed in bacteria as GST fusion or 6×His-tagged protein (protein, left off: a dimerising Fc or GST, recombinant mouse Sdc1 ectodomain (amino acids 18-251), expressed in bacteria as GST fusion or 6×His-tagged protein) QPALPQIVAVNVPPEDQDGSGDDSDNFSGSGTGALPDTLSRQTPSTWKDVWLLTATPTAPEPTSSNTETAFTSVLPAGEKPEEGEPVLHVEAEPGFTARDKEKEVTTRPRETVQLPITQRASTVRVTTAQAAVTSHPHGGMQPGLHETSAPTAPGQPDHQPPRVEGGGTSVIKEVVEDGTANQLPAGEGSGEQDFTFETSGENTAVAAVEPGLRNQPPVDEGATGASQSLLDRK | – | – | – | 3000 to 10000 nM | not seen | 3000 to 10000 nM
